# Paper PMC13039201 (Scientific Reports, 2026)
# Like-named read-outs stand apart in the source and are kept apart here.
# Tests used:
# [1] = target: Human serum albumin (HA), commercial HA (Homo sapiens, UniProt P02768)
# [2] = target: HA captured from plasma (T2DM-DKD, T2DM+DKD) (Homo sapiens, UniProt P02768); format: binding; conditions: n = 10 each, KD values
# [3] = target: HA captured from plasma (ACLF patients, CTRL) (Homo sapiens, UniProt P02768); format: binding; conditions: ACLF n = 6 vs CTRL n = 6, Student's t-test on KD values
# HA = conditions: read-out: KD reported in the literature; cited from earlier work
# anti-HA antibody = experiment: SPR injection on the bare anti-HA sensor chip without any immobilized HA; format: binding, rabbits
# Sequence of HA captured from plasma (ACLF patients, CTRL) (P02768 25-609): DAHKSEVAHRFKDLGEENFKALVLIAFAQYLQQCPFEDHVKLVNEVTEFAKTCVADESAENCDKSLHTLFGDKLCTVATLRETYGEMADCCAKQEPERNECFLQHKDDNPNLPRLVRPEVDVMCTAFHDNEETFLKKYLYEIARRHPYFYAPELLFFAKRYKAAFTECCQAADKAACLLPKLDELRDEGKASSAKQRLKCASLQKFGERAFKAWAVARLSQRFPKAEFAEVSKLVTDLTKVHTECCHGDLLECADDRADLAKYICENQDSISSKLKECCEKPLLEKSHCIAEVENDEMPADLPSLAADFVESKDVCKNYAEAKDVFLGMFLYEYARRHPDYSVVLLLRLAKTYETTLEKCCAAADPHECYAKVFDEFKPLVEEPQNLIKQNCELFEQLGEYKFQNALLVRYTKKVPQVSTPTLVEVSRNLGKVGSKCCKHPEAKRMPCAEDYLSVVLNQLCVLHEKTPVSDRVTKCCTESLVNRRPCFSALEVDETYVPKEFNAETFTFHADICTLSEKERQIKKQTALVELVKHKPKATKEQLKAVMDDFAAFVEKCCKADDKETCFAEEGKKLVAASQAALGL
# Sequence of Human serum albumin (HA), commercial HA (P02768 25-609): as above
# Sequence of HA captured from plasma (T2DM-DKD, T2DM+DKD) (P02768 25-609): as above
affinity of HA from ACLF patients compared with HA from CTRL subjects [3],Compound,Kd (HA) [µM],other results
–,COc1ccc2c3c1O[C@H]1C[C@@H](O)C=C[C@@]31CCN(C)C2 [galantamine],–,"interaction with HA (negative control) ([1]; 0.370-30.0 µM, 10 µL/min, 60 s): no interaction"
reduced its binding affinity,teicoplanin,–,binding capacity of HA in T2DM + DKD patients compared with T2DM-DKD [2]: did not significantly affect
–,"CCCCC1C(=O)N(c2ccccc2)N(c2ccccc2)C1=O [PBZ, phenylbutazone]",0.12 to 3.3,–
no significant differences,"C=CC1=C(C)/C(=C/C2=NC(=C\c3[nH]c(/C=C4\NC(=O)C(C)=C4C=C)c(C)c3CCC(=O)O)/C(CCC(=O)O)=C2C)NC1=O [BVD, biliverdin]",–,Kd [1]: 13 ± 3 µM; interactions with the anti-HA antibody (anti-HA antibody): significant interactions

Compound,affinity of HA from ACLF patients compared with HA from CTRL subjects [3],Kd (HA) [µM],other results
"CN(C)c1cccc2c(S(=O)(=O)N[C@@H](Cc3ccccc3)C(=O)O)cccc12 [DPA, dansyl-L-phenylalanine]",no significant differences,6,"Kd ([1]; commercial HA captured on chip, steady state 1:1 model, 25 °C, validation): 1.7 ± 0.3 µM"
